Reference: US20240376091A1, “THIADIAZOLEAMIDE DERIVATIVES AND THEIR APPLICATIONS” (ZHEJIANG UNIVERSITY, priority 2021, published 2024)
pIC50: −log10 of the molar value.

Tests used:
[1] = molecular target: T1, AR (Homo sapiens, UniProt P10275, T878A); assay: AR transcriptional activity, LNCaP-ARR2PB-eGFP reporter cells; assay type: cell-based; details: LNCaP-ARR2PB-eGFP cells, 5 nM DHT, 72 hours; read-out: IC50 AR transcriptional activities
T1 construct: into the androgen-dependent PCa cells (LNCaP); endogenous in cells; host or cells: LNCaP-ARR2PB-eGFP
T1 sequence (P10275 1-920 T878A): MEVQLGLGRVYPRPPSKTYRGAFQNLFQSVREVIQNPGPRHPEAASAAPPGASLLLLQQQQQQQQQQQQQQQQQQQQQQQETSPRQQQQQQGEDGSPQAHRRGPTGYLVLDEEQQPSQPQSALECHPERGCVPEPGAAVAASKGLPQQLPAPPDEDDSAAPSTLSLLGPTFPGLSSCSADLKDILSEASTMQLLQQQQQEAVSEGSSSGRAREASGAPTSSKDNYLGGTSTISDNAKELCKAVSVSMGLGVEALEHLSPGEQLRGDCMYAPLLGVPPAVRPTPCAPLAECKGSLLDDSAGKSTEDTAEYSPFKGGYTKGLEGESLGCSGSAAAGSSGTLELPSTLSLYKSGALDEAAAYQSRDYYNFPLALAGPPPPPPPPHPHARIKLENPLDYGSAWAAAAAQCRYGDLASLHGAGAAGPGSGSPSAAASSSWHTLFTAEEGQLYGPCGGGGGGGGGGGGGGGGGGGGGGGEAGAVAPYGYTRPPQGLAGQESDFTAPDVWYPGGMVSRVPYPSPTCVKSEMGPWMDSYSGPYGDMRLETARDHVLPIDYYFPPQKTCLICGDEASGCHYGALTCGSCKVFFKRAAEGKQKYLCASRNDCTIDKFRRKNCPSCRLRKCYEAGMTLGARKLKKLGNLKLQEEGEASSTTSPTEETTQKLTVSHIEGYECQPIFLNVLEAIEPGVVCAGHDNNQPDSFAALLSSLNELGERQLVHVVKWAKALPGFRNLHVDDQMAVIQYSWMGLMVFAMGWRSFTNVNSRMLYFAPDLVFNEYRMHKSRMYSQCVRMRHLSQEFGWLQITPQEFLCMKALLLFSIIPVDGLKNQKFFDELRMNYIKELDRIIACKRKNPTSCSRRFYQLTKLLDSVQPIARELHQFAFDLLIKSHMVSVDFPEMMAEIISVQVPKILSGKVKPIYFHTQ
Source text: Detection principles: We conducted a stable transfection of promoter ARR2PB known for its strong AR responsiveness, into the androgen-dependent PCa cells (LNCaP). The expression of enhanced green fluorescent protein (eGFP) is depending on the degree of activation of AR. Therefore, LNCaP-ARR2PB-eGFP cell line could quantitatively determine the AR antagonistic activities of the compounds by evaluating the expression of eGFP.

[2] = molecular target: T2, AR-LBD dimer (Homo sapiens, UniProt P10275); assay: Small-angle X-ray scattering (SAXS) of AR-LBD dimerization; details: AR-LBD 35 μM, DHT 10 μM, Enzalutamide 105 μM, A-1 105 μM
T2 sequence (P10275 669-900 limits assumed): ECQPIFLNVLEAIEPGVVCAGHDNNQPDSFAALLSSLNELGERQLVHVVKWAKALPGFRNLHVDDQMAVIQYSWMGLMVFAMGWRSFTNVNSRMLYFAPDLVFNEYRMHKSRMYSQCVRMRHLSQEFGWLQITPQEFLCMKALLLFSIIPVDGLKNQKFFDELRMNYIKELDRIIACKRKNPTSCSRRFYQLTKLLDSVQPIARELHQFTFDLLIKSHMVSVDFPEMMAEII
Source text: Detection principles: SAXS is a vital technique for detecting conformational changes of biomacromolecule by quantitatively evalucate the overall dimension and shape silhouette of biomacromolecule.
The SAXS scattering signal were collected for 20 frames (1 second exposure time) using the BL19U2 beamline. The ATSAS software were applied to analysis the results.

[3] = test system: LNCaP xenograft; assay: LNCaP xenograft model in vivo; details: intratumor injection 2.5 mg/kg/week
Experimental: Methods: LNCaP cells were injected to the Male CB17 SCID mice (6-8 weeks old). Once tumor size reached target value, the mice were randomized into three groups with 6-8 mice per group. […] The mice weight and tumor volume were periodically recorded. Finally, the tumors were harvested.

SMILES: CC(=O)Cc1nsc(NC(=O)c2cc(-c3cccc(C(F)(F)F)c3)oc2C)n1 [Compound A-1, 2-Methyl-N-(3-(2-oxopropyl)-1,2,4-thiadiazol-5-yl)-5-(3-(trifluoromethyl)phenyl)furan-3-carboxamide]
- pIC50 [1]: 7.52
- AR-LBD dimerization [2]: inhibits AR-LBD dimerization
- body weight [3]: no significant loss of body weight
- tumor growth inhibition, tumor volume [3]: much superior to that for Enzalutamide
- tumor growth inhibition, tumor weight [3]: much superior to that for Enzalutamide
